Experimental data reported in ChEMBL document CHEMBL3885881, “DrugMatrix”.

Species on record: Rattus norvegicus
Assay: DrugMatrix - Regimen: Daily Repeat
Type: toxicity, organism-based, Sprague-Dawley
Design: regimen Daily Repeat, gender Male, age 6-8 weeks
Conditions: in vivo, po, route oral GAVAGE, […]; for ABSOLUTE BASOPHIL / ABSOLUTE EOSINOPHIL / ABSOLUTE LYMPHOCYTE / ABSOLUTE MONOCYTE / ABSOLUTE SEGMENTED NEUTROPHIL / BASOPHIL / EOSINOPHIL / ERYTHROCYTE COUNT / HEMATOCRIT / HEMOGLOBIN / LEUKOCYTE COUNT / LYMPHOCYTE / MEAN CORPUSCULAR HEMOGLOBIN / MEAN CORPUSCULAR HEMOGLOBIN CONCENTRATION / MEAN CORPUSCULAR VOLUME / MONOCYTE / NEUTROPHIL / NUCLEATED RED BLOOD CELLS / PLATELET COUNT: tissue Blood; for ALANINE AMINOTRANSFERASE / ALBUMIN / ALKALINE PHOSPHATASE / ASPARTATE AMINOTRANSFERASE / BLOOD UREA NITROGEN / CARBON DIOXIDE / CHLORIDE / CHOLESTEROL / CREATINE PHOSPHOKINASE / CREATININE / GLUCOSE / LACTATE DEHYDROGENASE / LIPASE / PHOSPHORUS / POTASSIUM / SODIUM / TOTAL BILIRUBIN / TOTAL PROTEIN / URIC ACID: tissue Plasma
[1] = 0 mg/kg, 72 h, dose level Control, time 3 day
[2] = 0 mg/kg, 120 h, dose level Control, time 5 day
[3] = 6 mg/kg, 72 h, dose level Low, time 3 day

CO[C@H]1O[C@@H]2O[C@@]3(C)CC[C@H]4[C@H](C)CC[C@@H]([C@H]1C)[C@@]24OO3
ABSOLUTE BASOPHIL [1]: 0 CELLS/uL | ABSOLUTE EOSINOPHIL [1]: 138.5 CELLS/uL | ABSOLUTE LYMPHOCYTE [1]: 13978.67 CELLS/uL | ABSOLUTE MONOCYTE [1]: 391 CELLS/uL | ABSOLUTE SEGMENTED NEUTROPHIL [1]: 1608.5 CELLS/uL | BASOPHIL [1]: 0% | EOSINOPHIL [1]: 1% | ERYTHROCYTE COUNT [1]: 5.8 x10E6/uL | HEMATOCRIT [1]: 36.22% | HEMOGLOBIN [1]: 13.65 G/DL | LEUKOCYTE COUNT [1]: 16.12 x10E3/uL | LYMPHOCYTE [1]: 86.67% | MEAN CORPUSCULAR HEMOGLOBIN [1]: 23.58 pg | MEAN CORPUSCULAR HEMOGLOBIN CONCENTRATION [1]: 37.72 G/DL | MEAN CORPUSCULAR VOLUME [1]: 62.52 fL | MONOCYTE [1]: 2.5% | NEUTROPHIL [1]: 9.83% | NUCLEATED RED BLOOD CELLS [1]: 0 /100WBC | PLATELET COUNT [1]: 1214.17 x10E3/uL | ALANINE AMINOTRANSFERASE [1]: 59.5 u/L | ALBUMIN [1]: 4.1 G/DL | ALKALINE PHOSPHATASE [1]: 393.83 u/L | ASPARTATE AMINOTRANSFERASE [1]: 87.83 u/L | BLOOD UREA NITROGEN [1]: 16.33 mg/dL | CARBON DIOXIDE [1]: 28.17 mmol/L | CHLORIDE [1]: 100.83 MEQ/L | CHOLESTEROL [1]: 73.33 mg/dL | CREATINE PHOSPHOKINASE [1]: 398 u/L | CREATININE [1]: 0.2 mg/dL | GLUCOSE [1]: 152.67 mg/dL | LACTATE DEHYDROGENASE [1]: 501.5 u/L | LIPASE [1]: 9.5 u/L | PHOSPHORUS [1]: 10.77 mg/dL | POTASSIUM [1]: 6.44 MEQ/L | SODIUM [1]: 143.4 MEQ/L | TOTAL BILIRUBIN [1]: 0.17 mg/dL | TOTAL PROTEIN [1]: 5.92 G/DL | URIC ACID [1]: 1.68 mg/dL | ABSOLUTE BASOPHIL [2]: 0 CELLS/uL | ABSOLUTE EOSINOPHIL [2]: 183.33 CELLS/uL | ABSOLUTE LYMPHOCYTE [2]: 14952.83 CELLS/uL | ABSOLUTE MONOCYTE [2]: 238.5 CELLS/uL | ABSOLUTE SEGMENTED NEUTROPHIL [2]: 1642 CELLS/uL | BASOPHIL [2]: 0% | EOSINOPHIL [2]: 1% | ERYTHROCYTE COUNT [2]: 5.89 x10E6/uL | HEMATOCRIT [2]: 36.13% | HEMOGLOBIN [2]: 13.37 G/DL | LEUKOCYTE COUNT [2]: 17.02 x10E3/uL | LYMPHOCYTE [2]: 87.17% | MEAN CORPUSCULAR HEMOGLOBIN [2]: 22.73 pg | MEAN CORPUSCULAR HEMOGLOBIN CONCENTRATION [2]: 37.02 G/DL | MEAN CORPUSCULAR VOLUME [2]: 61.45 fL | MONOCYTE [2]: 1.5% | NEUTROPHIL [2]: 10.33% | NUCLEATED RED BLOOD CELLS [2]: 0 /100WBC | PLATELET COUNT [2]: 1183.5 x10E3/uL | ALANINE AMINOTRANSFERASE [2]: 54.83 u/L | ALBUMIN [2]: 4.28 G/DL | ALKALINE PHOSPHATASE [2]: 363.17 u/L | ASPARTATE AMINOTRANSFERASE [2]: 96.83 u/L | BLOOD UREA NITROGEN [2]: 15.67 mg/dL | CARBON DIOXIDE [2]: 26.17 mmol/L | CHLORIDE [2]: 102.67 MEQ/L | CHOLESTEROL [2]: 63.67 mg/dL | CREATINE PHOSPHOKINASE [2]: 594.33 u/L | CREATININE [2]: 0.2 mg/dL | GLUCOSE [2]: 182.33 mg/dL | LACTATE DEHYDROGENASE [2]: 656.5 u/L | LIPASE [2]: 9.33 u/L | PHOSPHORUS [2]: 11.7 mg/dL | POTASSIUM [2]: 5.92 MEQ/L | SODIUM [2]: 142.62 MEQ/L | TOTAL BILIRUBIN [2]: 0.13 mg/dL | TOTAL PROTEIN [2]: 5.85 G/DL | URIC ACID [2]: 1.8 mg/dL | ABSOLUTE BASOPHIL [3]: 0 CELLS/uL | ABSOLUTE EOSINOPHIL [3]: 0 CELLS/uL | ABSOLUTE LYMPHOCYTE [3]: 14690 CELLS/uL | ABSOLUTE MONOCYTE [3]: 490.33 CELLS/uL | ABSOLUTE SEGMENTED NEUTROPHIL [3]: 1319.67 CELLS/uL | BASOPHIL [3]: 0% | EOSINOPHIL [3]: 0% | ERYTHROCYTE COUNT [3]: 5.7 x10E6/uL | HEMATOCRIT [3]: 36.23% | HEMOGLOBIN [3]: 13.63 G/DL | LEUKOCYTE COUNT [3]: 16.5 x10E3/uL | LYMPHOCYTE [3]: 88.67% | MEAN CORPUSCULAR HEMOGLOBIN [3]: 23.93 pg | MEAN CORPUSCULAR HEMOGLOBIN CONCENTRATION [3]: 37.67 G/DL | MEAN CORPUSCULAR VOLUME [3]: 63.6 fL | MONOCYTE [3]: 3% | NEUTROPHIL [3]: 8.33% | NUCLEATED RED BLOOD CELLS [3]: 0 /100WBC | PLATELET COUNT [3]: 1120 x10E3/uL | ALANINE AMINOTRANSFERASE [3]: 66.67 u/L | ALBUMIN [3]: 4.17 G/DL | ALKALINE PHOSPHATASE [3]: 405.67 u/L | ASPARTATE AMINOTRANSFERASE [3]: 88.33 u/L | BLOOD UREA NITROGEN [3]: 16.33 mg/dL | CARBON DIOXIDE [3]: 25.67 mmol/L | CHLORIDE [3]: 103 MEQ/L | CHOLESTEROL [3]: 70.33 mg/dL | CREATINE PHOSPHOKINASE [3]: 249.33 u/L | CREATININE [3]: 0.21 mg/dL | GLUCOSE [3]: 155.33 mg/dL | LACTATE DEHYDROGENASE [3]: 155 u/L | LIPASE [3]: 9.33 u/L | PHOSPHORUS [3]: 11.6 mg/dL | POTASSIUM [3]: 6.23 MEQ/L | SODIUM [3]: 145.23 MEQ/L | TOTAL BILIRUBIN [3]: 0.2 mg/dL | TOTAL PROTEIN [3]: 5.8 G/DL | URIC ACID [3]: 1.47 mg/dL
